Biological target: T1, KRAS G12D 1-169 (His-tagged, GDP-loaded) (Homo sapiens, UniProt P01116, G12D)
T1 construct: His -tagged GDP-loaded G12D 1-169; made in house; host or cells: E. coli, e.g. BL21 (DE3)
Test: Covalent modification of KRAS protein by intact-protein LC-MS
Assay type: binding
Conditions: comparable or same conditions as K-Ras G12S
Experimental: Test compounds are prepared as 10 mM stock solutions in DMSO (Fisher cat #BP231-100). KRAS protein (His -tagged GDP-loaded wildtype 1-169, His -tagged GDP-loaded G12S 1-169 or His -tagged GDP-loaded G12D 1-169) is diluted to ˜2 μM in appropriate buffer (e.g., a Hepes buffer at physiological conditions). For testing KRAS modification, compounds are diluted to 50× final test concentration in DMSO in 96-well storage plates. 2 μl of the diluted 50× compounds are added to appropriate wells in the PCR plate (Fisher cat #AB-0800). ˜49 μl of the stock protein solution is added to each well of the 96-well PCR plate. Reactions are mixed carefully. The plate is sealed well with aluminum plate seal, and stored in drawer at room temperature for 24 hrs. 5 μl of 2% formic acid (Fisher cat #A117-50) in MilliQ H2O is then added to each well followed by mixing with a pipette. The plate is then resealed with aluminum seal and stored until mass spectrometry analysis.
The extent of covalent modification of KRAS proteins was determined by liquid chromatography electrospray mass spectrometry analysis of the intact proteins on a Thermo Q-Exactive Plus mass spectrometer. 20 μl of sample was injected onto a bioZen 3.6 μm Intact C4 column (Phenomenex cat #00B-4767-AN) placed in a column oven set to 40° C. and separated using a suitable LC gradient from ˜20% to ˜60% solvent B. Solvent A was 0.1% formic acid and solvent B was 0.1% formic acid in acetonitrile. HESI source settings were set to 40, 5 and 1 for the sheath, auxiliary and sweep gas flow, respectively. The spray voltage was 4 kV, and the capillary temperature was 320° C. S-lens RF level was 50 and auxiliary gas heater temperature was set to 200° C. The mass spectrometry was acquired using a scan range from 650 to 1750 m/z using positive polarity at a mass resolution of 70,000, AGC target of 1e6 ions and maximum injection time of 250 ms. The recorded protein mass spectrum was deconvoluted from the raw data file using Protein Deconvolution v4.0 (Thermo). The protein mass and adduct masses were exported with their peak intensities. The peak intensities for the unmodified and modified protein were used to calculate the percent covalent modification of the KRAS protein based on the following equation: % KRAS protein modification=((KRAS−compound)/(KRAS)+(KRAS−Compound))*100.

T1 sequence (P01116 1-169 isoform P01116-2 G12D): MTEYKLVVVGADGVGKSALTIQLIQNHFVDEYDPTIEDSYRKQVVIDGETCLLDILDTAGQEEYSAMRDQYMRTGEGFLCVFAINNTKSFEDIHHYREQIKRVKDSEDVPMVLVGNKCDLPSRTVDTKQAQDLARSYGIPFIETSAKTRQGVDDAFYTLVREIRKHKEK

Row | SMILES | covalent labeling of K-Ras G12D
1 | COCCN1CCC(Oc2nc(N3CCCCC4(CN(C(=O)n5cncn5)C4)C3)c3cc(Cl)c(-c4ccc(F)c5sc(N)c(C#N)c45)c(F)c3n2)CC1 [Compound A119, 4-(4-(2-(1H-1,2,4-triazole-1-carbonyl)-2,6-diazaspiro[3.6]-decan-6-yl)-6-chloro-8-fluoro-2-((1-(2-methoxyethyl)piperi-din-4-yl)oxy)quinazolin-7-yl)-2-amino-7-fluorobenzo[b]-thiophene-3-carbonitrile] | essentially no detectable labeling
2 | Nc1nc2c(-c3c(Cl)cc4c(N5CCCC6(CN(C(=O)n7cncn7)CCO6)C5)nc(OC[C@@]56CCCN5C[C@H](F)C6)nc4c3F)ccc(F)c2s1 (stereo partly drawn) [Compound A125, (8-(7-(2-amino-7-fluorobenzo-[d]thiazol-4-yl)-6-chloro-8-fluoro-2-(((2R,7aS)-2-fluoro-tetrahydro-1H-pyrrolizin-7a(5H)-yl)methoxy)quinazolin-4-yl)-1-oxa-4,8-diazaspiro[5.5]-undecan-4-yl)(1H-1,2,4-triazol-1-yl)methanone] | essentially no detectable labeling
3 | N#Cc1c(N)sc2c(F)ccc(-c3ncc4c(N5CCCC6(CN(C(=O)n7cncn7)C6)C5)nc(OC[C@@]56CCCN5C[C@H](F)C6)nc4c3F)c12 [Compound A134, 4-(4-(2-(1H-1,2,4-triazole-1-carbonyl)-2,6-diazaspiro[3.5]-nonan-6-yl)-8-fluoro-2-(((2R,7aS)-2-fluorotetrahydro-1H-pyrrolizin-7a(5H)-yl)meth-oxy)pyrido[4,3-d]pyrimidin-7-yl)-2-amino-7-fluorobenzo[b]-thiophene-3-carbonitrile] | essentially no detectable labeling
4 | N#Cc1c(N)sc2c(F)ccc(-c3ncc4c(N5CCOC6(CN(C(=O)n7cncn7)C6)C5)nc(OC[C@@]56CCCN5C[C@H](F)C6)nc4c3F)c12 [Compound A161, 4-(4-(2-(1H-1,2,4-triazole-1-carbonyl)-5-oxa-2,8-diaza-spiro[3.5]nonan-8-yl)-8-fluoro-2-(((2R,7aS)-2-fluorotetrahydro-1H-pyrrolizin-7a(5H)-yl)meth-oxy)pyrido[4,3-d]pyrimidin-7-yl)-2-amino-7-fluorobenzo[b]-thiophene-3-carbonitrile] | essentially no detectable labeling
5 | N#Cc1c(N)sc2c(F)ccc(-c3c(Cl)cc4c(N5CCOC6(CN(C(=O)n7cncn7)C6)C5)nc(OC[C@@]56CCCN5C[C@H](F)C6)nc4c3F)c12 [Compound A162, 4-(4-(2-(1H-1,2,4-triazole-1-carbonyl)-5-oxa-2,8-diaza-spiro[3.5]nonan-8-yl)-6-chloro-8-fluoro-2-(((2R,7aS)-2-fluoro-tetrahydro-1H-pyrrolizin-7a(5H)-yl)methoxy)quinazolin-7-yl)-2-amino-7-fluorobenzo-[b]thiophene-3-carbonitrile] | essentially no detectable labeling
6 | N#Cc1c(N)sc2c(F)ccc(-c3c(Cl)cc4c(OC5CCCCN(C(=O)n6cncn6)C5)nc(OC[C@@]56CCCN5C[C@H](F)C6)nc4c3F)c12 (stereo partly drawn) [Compound A169, 4-(4-((1-(1H-1,2,4-triazole-1-carbonyl)azepan-3-yl)oxy)-6-chloro-8-fluoro-2-(((2R,7aS)-2-fluorotetrahydro-1H-pyrrolizin-7a(5H)-yl)methoxy)quinazolin-7-yl)-2-amino-7-fluorobenzo-[b]thiophene-3-carbonitrile] | essentially no detectable labeling
7 | Cc1nc(C)n(C(=O)N2CC3(COCCN(c4nc(OC[C@@]56CCCN5C[C@H](F)C6)nc5c(F)c(-c6ccc(F)c7sc(N)c(C#N)c67)c(Cl)cc45)C3)C2)n1 [Compound A185, 2-amino-4-(6-chloro-4-(2-(3,5-dimethyl-1H-1,2,4-triazole-1-carbonyl)-6-oxa-2,9-diazaspiro-[3.6]decan-9-yl)-8-fluoro-2-(((2R,7aS)-2-fluorotetrahydro-1H-pyrrolizin-7a(5H)-yl)meth-oxy)quinazolin-7-yl)-7-fluoro-benzo[b]thiophene-3-carbonitrile] | essentially no detectable labeling
8 | N#Cc1c(N)sc2c(F)ccc(-c3c(Cl)cc4c(N5CCOC6(CN(C(=O)n7ccnn7)C6)C5)nc(OC[C@@]56CCCN5C[C@H](F)C6)nc4c3F)c12 [Compound A195, 4-(4-(2-(1H-1,2,3-triazole-1-carbonyl)-5-oxa-2,8-diazaspiro-[3.5]nonan-8-yl)-6-chloro-8-fluoro-2-(((2R,7aS)-2-fluoro-tetrahydro-1H-pyrrolizin-7a(5H)-yl)methoxy)quinazolin-7-yl)-2-amino-7-fluorobenzo-[b]thiophene-3-carbonitrile] | essentially no detectable labeling
9 | Nc1nc2c(-c3c(Cl)cc4c(N5CCC56CCCN(C(=O)n5cncn5)C6)nc(OCC56CCCN5CC(F)C6)nc4c3F)ccc(F)c2s1 (stereo not drawn) [Compound A197, (1-(7-(2-amino-7-fluorobenzo-[d]thiazol-4-yl)-6-chloro-8-fluoro-2-((2-fluorotetrahydro-1H-pyrrolizin-7a(5H)-yl)meth-oxy)quinazolin-4-yl)-1,6-diazaspiro[3.5]nonan-6-yl)(1H-1,2,4-triazol-1-yl)methanone] | essentially no detectable labeling
10 | Nc1nc2c(-c3c(Cl)cc4c(N5CCC6(CN(C(=O)n7cncn7)CCO6)C5)nc(OC[C@@]56CCCN5C[C@H](F)C6)nc4c3F)ccc(F)c2s1 (stereo partly drawn) [Compound A202, (2-(7-(2-amino-7-fluorobenzo-[d]thiazol-4-yl)-6-chloro-8-fluoro-2-(((2R,7aS)-2-fluoro-tetrahydro-1H-pyrrolizin-7a(5H)-yl)methoxy)quinazolin-4-yl)-6-oxa-2,9-diazaspiro[4.5]-decan-9-yl)(1H-1,2,4-triazol-1-yl)methanone] | essentially no detectable labeling
11 | Nc1nc2c(-c3c(Cl)cc4c(N5CCC56CCCN(C(=O)n5cncn5)CC6)nc(OC[C@@]56CCCN5C[C@H](F)C6)nc4c3F)ccc(F)c2s1 (stereo partly drawn) [Compound A209, (1-(7-(2-amino-7-fluorobenzo-[d]thiazol-4-yl)-6-chloro-8-fluoro-2-(((2R,7aS)-2-fluoro-tetrahydro-1H-pyrrolizin-7a(5H)-yl)methoxy)quinazolin-4-yl)-1,7-diazaspiro[3.6]decan-7-yl)(1H-1,2,4-triazol-1-yl)-methanone] | essentially no detectable labeling
12 | Nc1nc2c(-c3c(Cl)cc4c(N5CC6(CCCN(C(=O)n7cncn7)C6)C5)nc(OC[C@@]56CCCN5C[C@H](F)C6)nc4c3F)ccc(F)c2s1 [Compound A230, (2-(7-(2-amino-7-fluorobenzo-[d]thiazol-4-yl)-6-chloro-8-fluoro-2-(((2R,7aS)-2-fluoro-tetrahydro-1H-pyrrolizin-7a(5H)-yl)methoxy)quinazolin-4-yl)-2,6-diazaspiro[3.5]nonan-6-yl)(1H-1,2,4-triazol-1-yl)-methanone] | essentially no detectable labeling
13 | Nc1nc2c(-c3c(Cl)cc4c(N5CCOC6(CCN(C(=O)n7cncn7)CC6)C5)nc(OCC56CCCN5C[C@H](F)C6)nc4c3F)ccc(F)c2s1 (stereo partly drawn) [Compound A243, (4-(7-(2-amino-7-fluorobenzo-[d]thiazol-4-yl)-6-chloro-8-fluoro-2-(((2R)-2-fluorotetra-hydro-1H-pyrrolizin-7a(5H)-yl)methoxy)quinazolin-4-yl)-1-oxa-4,9-diazaspiro[5.5]undecan-9-yl)(1H-1,2,4-triazol-1-yl)-methanone] | essentially no detectable labeling
14 | N#Cc1c(N)sc2c(F)ccc(-c3c(Cl)cc4c(OC5CCCCN(C(=O)n6cncn6)C5)nc(OC[C@@]56CCCN5C[C@H](F)C6)nc4c3F)c12 (stereo partly drawn) [Compound A258, 4-(4-((1-(1H-1,2,4-triazole-1-carbonyl)azepan-3-yl)oxy)-6-chloro-8-fluoro-2-(((2R,7aS)-2-fluorotetrahydro-1H-pyrrolizin-7a(5H)-yl)methoxy)quinazolin-7-yl)-2-amino-7-fluorobenzo-[b]thiophene-3-carbonitrile] | essentially no detectable labeling
15 | Nc1nc2c(-c3c(Cl)cc4c(N5CCCCC6(CN(C(=O)n7cncn7)C6)C5)nc(OC[C@@]56CCCN5C[C@H](F)C6)nc4c3F)ccc(F)c2s1 [Compound A265, (6-(7-(2-amino-7-fluorobenzo-[d]thiazol-4-yl)-6-chloro-8-fluoro-2-(((2R,7aS)-2-fluoro-tetrahydro-1H-pyrrolizin-7a(5H)-yl)methoxy)quinazolin-4-yl)-2,6-diazaspiro[3.6]decan-2-yl)(1H-1,2,4-triazol-1-yl)-methanone] | essentially no detectable labeling

Reference: patent publication US20240368191A1, “HETEROCYCLIC COMPOUNDS AND USES THEREOF” (Kumquat Biosciences Inc., priority 2021, published 2024)
